Tested on: AR
Test: Real-time PCR of AR target gene transcription in LNCaP-AR (AR overexpressing) cells, CRPC model
Assay type: cell-based
Parameters: key to B5 = Relative antagonist activity (plus 0.1 nM R1881) of test compounds (20 μM) in AR overexpressing LNCaP cells (NKX3.1 AR target gene) / B7 = Relative antagonist activity (plus 0.1 nM R1881) of test compounds (20 μM) in AR overexpressing LNCaP cells (PSA AR target gene): a score of 1 indicates higher antagonist efficacy (highly desired activity) than benchmark compound enzalutamide; a score of 2 indicates equal antagonist efficacy to enzalutamide (desirable); a score of 3 indicates antagonist efficacy between enzalutamide and bicalutamide (less desirable activity); a score of 4 indicates antagonist efficacy equal to bicalutamide (liability); a score of 5 indicates antagonist efficacy worse than bicalutamide (liability); key to B4 = Relative agonist activity (no R1881) of test compounds (20 μM) in AR overexpressing LNCaP cells (NKX3.1 AR target gene) / B6 Relative agonist activity (no R1881) of test compounds (20 μM) in AR overexpressing LNCaP cells (PSA AR target gene): a score of 1 indicates less agonism (highly desired activity) than benchmark compound enzalutamide; a score of 2 indicates equal agonism to enzalutamide (desirable); a score of 3 indicates agonism between enzalutamide and bicalutamide (less desirable activity); a score of 4 indicates equal agonism to bicalutamide (liability); a score of 5 indicates higher agonism than bicalutamide (liability)
Conditions: 20 μM, score vs enzalutamide/bicalutamide; for B4 = Relative agonist activity (no R1881) of test compounds (20 μM) in AR overexpressing LNCaP cells (NKX3.1 AR target gene): no R1881, NKX3.1 gene; for B5 = Relative antagonist activity (plus 0.1 nM R1881) of test compounds (20 μM) in AR overexpressing LNCaP cells (NKX3.1 AR target gene): plus 0.1 nM R1881, NKX3.1 gene; for B7 = Relative antagonist activity (plus 0.1 nM R1881) of test compounds (20 μM) in AR overexpressing LNCaP cells (PSA AR target gene): plus 0.1 nM R1881, PSA gene
Description: Real-Time PCR (CRPC model of AR overexpressing prostate cancer cells, Table 2, B4-B7). LNCaP-AR (AR overexpressing cells) cells were seeded in 12-well plates in RPMI 1640 (8% charcoal-stripped fetal calf serum (CFS)). […] AR target gene transcription (PSA, NKX3.1, FKBP5) was assessed by realtime PCR.
For B4-B7, scoring system is based on the relative AR target gene agonist/antagonist activity of test compounds when compared to benchmark compounds enzalutamide or bicalutamide. […] The lack of agonist activity is desirable for therapies intended to treat CRPC. For B4 and B6, a score of 1 indicates less agonism (highly desired activity) than benchmark compound enzalutamide, a score of 2 indicates equal agonism to enzalutamide (desirable), a score of 3 indicates agonism between enzalutamide and bicalutamide (less desirable activity), a score of 4 indicates equal agonism to bicalutamide (liability), and a score of 5 indicates higher agonism than bicalutamide (liability). For B5 and B7 a score of 1 indicates higher antagonist efficacy (highly desired activity) than benchmark compound enzalutamide, a score of 2 indicates equal antagonist efficacy to enzalutamide (desirable), a score of 3 indicates antagonist efficacy between enzalutamide and bicalutamide (less desirable activity), a score of 4 indicates antagonist efficacy equal to bicalutamide (liability), and a score of 5 indicates antagonist efficacy worse than bicalutamide (liability) For B9, Compounds that degrade AR (greater than 50% degradation at 10 μM) are indicated.

Row | SMILES | B4 = Relative agonist activity (no R1881) of test compounds (20 μM) in AR overexpressing LNCaP cells (NKX3.1 AR target gene) | B6 Relative agonist activity (no R1881) of test compounds (20 μM) in AR overexpressing LNCaP cells (PSA AR target gene) | B5 = Relative antagonist activity (plus 0.1 nM R1881) of test compounds (20 μM) in AR overexpressing LNCaP cells (NKX3.1 AR target gene) | B7 = Relative antagonist activity (plus 0.1 nM R1881) of test compounds (20 μM) in AR overexpressing LNCaP cells (PSA AR target gene)
1 | CC1CC(=O)C2=C(C1)Nc1ccc3ccccc3c1C2c1ccc(F)cc1 (stereo not drawn) [Compound A4] | 1 | 1 | 1 | 1
2 | O=C1CCCC2=C1C(c1ccc([N+](=O)[O-])cc1)c1c(ccc3ccccc13)N2 (stereo not drawn) [Compound A1, 12-(4-nitrophenyl)-8,9,10,12-tetrahydrobenzo[a]acridin-11(7H)-one] | 1 | 1 | 2 | 2
3 | O=C1CCCC2=C1Nc1ccc3ccccc3c1C2c1ccc([N+](=O)[O-])cc1 (stereo not drawn) [Compound A10] | 2 | 1 | 2 | 1
